The text below walks through data of the supplement of paper PMC12592484.

What all share (test): drug sensitivity score (DSS2, normalised partial AUC of dose-response, 72 h CellTiter-Glo viability) (DSS (dimensionless)); higher = more sensitive (stronger growth inhibition / cytotoxicity); extreme values may be limits of the assay
(In ATP-based viability assays light output follows the ATP content of the culture.)

In assay [1] the test system is CAF#7 (primary prostate cancer-associated fibroblasts of myCAF-like type). Put shortly: (§1)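 In BREEZE, the drug sensitivity score was derived as a partial area under a fitted logistic dose–response curve over the log of that curve's upper asymptote; a higher score marks a more sensitive response. The input came from low-passage primary prostate cancer-associated fibroblasts, PF179T, WPMY-1, LNCaP and 22Rv1 cells, each seeded into 384-well plates with compounds pre-dispensed at five doses spanning a 10,000-fold range. CellTiter-Glo 2.0 luminescence after 72 h gave viability, which was normalized to vehicle and positive-control wells.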

Assay [2] concerns CAF#6 (primary prostate cancer-associated fibroblasts of iCAF-like type). An outline of the steps: as §1
For assay [3], the system named is PF179T. An outline of the steps:
as §1

The subject of assay [4] is CAF#1 (primary prostate cancer-associated fibroblasts of myCAF-like type). Put shortly:
as §1

Assay [5] has as its system CAF#5 (primary prostate cancer-associated fibroblasts of myCAF-like type). An outline of the steps: as §1
Assay [6] deals with 22Rv1. Put shortly: as §1
Assay [7] concerns CAF#4 (primary prostate cancer-associated fibroblasts of iCAF-like type). Put shortly: as §1
Assay [8] concerns CAF#3 (primary prostate cancer-associated fibroblasts of myCAF-like type). Put shortly:
as §1

Assay [9] concerns WPMY-1. An outline of the steps:
as §1

The test system of assay [10] is LNCAP. Put shortly: as §1
The test system of assay [11] is CAF#2 (primary prostate cancer-associated fibroblasts of iCAF-like type). An outline of the steps: as §1

In the case of `CCC/C=C/C=C/C(=O)O[C@H]1/C(=C/C(=O)OC)C[C@H]2C[C@H]([C@@H](C)O)OC(=O)C[C@H](O)C[C@@H]3C[C@H](OC(C)=O)C(C)(C)[C@](O)(C[C@@H]4C/C(=C/C(=O)OC)C[C@H](/C=C/C(C)(C)[C@]1(O)O2)O4)O3` [Bryostatin 1] (tested concentration range 0-100 nM), the drug sensitivity score was determined as 4 in assay [1]; 2.6 in assay [2]; 0 in assay [3]; 4.2 in assay [4]; 3 in assay [5]; 0 in assay [6]. Further, the drug sensitivity score in assay [7] amounted to 0.5; in assay [8] it was 0.6; in assay [9], 1.3; in assay [10], 0.1; in assay [11], 3.4.

With `Cc1noc2c1-c1ccccc1C(c1ccc(Cl)cc1)=N[C@H]2CC(N)=O` [CPI-0610] (tested concentration range 1-10000 nM), the drug sensitivity score was 1.8 in assay [1]; 4.5 in assay [2]; 4.1 in assay [3]; 7 in assay [4]; 4.1 in assay [5]; 9.2 in [6]. Also, the drug sensitivity score in assay [7] was 1.4; in assay [8] it was 8.4; in assay [9], 7.9; in assay [10] it was 13; in assay [11] it was 6.5.

`CO[C@H]1C(=O)[C@]2(C)[C@@H](OC)C[C@H]3OC[C@@]3(OC(C)=O)[C@H]2[C@H](OC(=O)c2ccccc2)[C@]2(O)C[C@H](OC(=O)[C@H](O)[C@@H](NC(=O)OC(C)(C)C)c3ccccc3)C(C)=C1C2(C)C` [Cabazitaxel] (tested concentration range 0.1-1000 nM): the drug sensitivity score in assay [1] is 26.4; in assay [2] it was 18.4; in assay [3], 22.2; in assay [4], 14.6; in [5], 15.8; in assay [6] it was 26.5. Also, the drug sensitivity score is 13 in assay [7]; 14.2 in assay [8]; 28.2 in assay [9]; 35.6 in assay [10]; 18.1 in [11].

Take `COc1cc2nccc(Oc3ccc(NC(=O)C4(C(=O)Nc5ccc(F)cc5)CC4)cc3)c2cc1OC` [Cabozantinib] (tested concentration range 0.1-1000 nM): the drug sensitivity score in assay [1] came to 5.6; in assay [2] it was 3.7; in assay [3] it was 4.1; in assay [4], 4.6; in assay [5], 7.4; in assay [6], 0.3. For the same compound, the drug sensitivity score turned out to be 3.9 in [7]; 5.4 in assay [8]; 3.8 in assay [9]; 7.1 in [10]; 7.9 in assay [11].

In the case of `CCCCCOC(=O)Nc1nc(=O)n([C@@H]2O[C@H](C)[C@@H](O)[C@H]2O)cc1F` [Capecitabine] (tested concentration range 1-10000 nM), the drug sensitivity score in [1], in assay [2], in [3], in [4], in assay [5] and in [6] was 0 in each case. The drug sensitivity score in assay [7], in assay [8], in assay [9], in [10] and in assay [11] was 0 in each case.

Regarding `NC1(C(=O)N[C@@H](CCO)c2ccc(Cl)cc2)CCN(c2nc[nH]c3nccc2-3)CC1` [Capivasertib] (tested concentration range 1-10000 nM), the drug sensitivity score in [1] stood at 2.4; in [2], 2.7; in assay [3] it was 4.6; in assay [4], 4.5; in assay [5] it was 3.6; in [6], 7.2. The drug sensitivity score in assay [7] was 0.3; in [8], 0; in assay [9], 3; in assay [10] it was 23.5; in assay [11] it was 4.1.

Turning to `CNC(=O)c1ccc(-c2cnc3ncc(Cc4ccc5ncccc5c4)n3n2)cc1F` [Capmatinib] (tested concentration range 0.1-1000 nM), the drug sensitivity score was 0 in assay [1]; 0 in assay [2]; 0.4 in assay [3]; 0 in [4]; 0 in assay [5]; 0 in assay [6]. The drug sensitivity score in [7] worked out at 0; in assay [8], 0; in [9] it was 0.1; in assay [10], 0; in assay [11], 3.1.

Take `O=C(O)C1(C(=O)O)CCC1.[NH2-].[NH2-].[Pt+2]` [Carboplatin] (tested concentration range 10-100000 nM): the drug sensitivity score in [1] was determined as 0.4; in assay [2], 1.6; in [3], 6; in [4], 4.8; in [5] it was 5.5; in assay [6] it was 6.7. Also, the drug sensitivity score in [7] is 5.5; in assay [8], 2.8; in assay [9], 7.7; in assay [10], 5.5; in assay [11], 8.3.

As to `CC(C)C[C@H](NC(=O)[C@H](CCc1ccccc1)NC(=O)CN1CCOCC1)C(=O)N[C@@H](Cc1ccccc1)C(=O)N[C@@H](CC(C)C)C(=O)[C@@]1(C)CO1` [Carfilzomib] (tested concentration range 0.1-1000 nM), the drug sensitivity score in assay [1] was found to be 16.7; in [2], 15.9; in assay [3], 20.3; in assay [4], 17.5; in [5], 22; in assay [6] it was 27.5. Also, the drug sensitivity score in [7] was determined as 13.3; in assay [8], 17.1; in [9] it was 31.5; in assay [10], 27.2; in assay [11], 18.9.

As to `Cc1ccc(-c2cc(C(F)(F)F)nn2-c2ccc(S(N)(=O)=O)cc2)cc1` [Celecoxib] (tested concentration range 1-10000 nM), the drug sensitivity score in [1], in assay [2], in assay [3], in assay [4], in [5] and in assay [6] was 0 in each case. The drug sensitivity score in [7] was determined as 0; in assay [8], 0; in assay [9], 0; in [10], 1.2; in assay [11], 0.

As for `C[C@@H]1COCCN1c1cc(C2([S@](C)(=N)=O)CC2)nc(-c2cc[nH]c3nccc2-3)n1` [Ceralasertib] (tested concentration range 2.5-25000 nM), the drug sensitivity score worked out at 6.3 in [1]; 6.2 in assay [2]; 8.1 in assay [3]; 6.6 in [4]; 7.8 in assay [5]; 10 in assay [6]. For the same compound, the drug sensitivity score in [7] was determined as 8; in assay [8] it was 6.7; in assay [9], 13.9; in assay [10], 10.7; in [11], 9.3.

Consider `CCS(=O)(=O)N1CCN(c2ccc(Nc3ncc(C(N)=O)c(NC4CC4)n3)cc2)CC1` [Cerdulatinib] (tested concentration range 1-10000 nM), for which the drug sensitivity score was 0.1 in [1]; 0.4 in assay [2]; 2.7 in assay [3]; 6.1 in assay [4]; 3.8 in assay [5]; 0 in [6]. In addition, the drug sensitivity score in [7] stood at 0; in assay [8] it was 0; in assay [9] it was 8.8; in assay [10], 4.4; in [11] it was 3.7.
